This note sets out measurements from patent US20250034170A1, “SMALL MOLECULE MODULATORS OF GLUCOCEREBROSIDASE ACTIVITY AND USES THEREOF” (Vanqua Bio, Inc., priority 2021, published 2025).

As usually defined, the EC50 is the midpoint of the concentration-response curve. High values mean a need for much substance, low ones an effect from little substance.

In this assay the target is T1, GCase (Homo sapiens, UniProt P04062).
T1 construct: endogenous in cells; host or cells: HeLa cells
T1 sequence (P04062 40-536): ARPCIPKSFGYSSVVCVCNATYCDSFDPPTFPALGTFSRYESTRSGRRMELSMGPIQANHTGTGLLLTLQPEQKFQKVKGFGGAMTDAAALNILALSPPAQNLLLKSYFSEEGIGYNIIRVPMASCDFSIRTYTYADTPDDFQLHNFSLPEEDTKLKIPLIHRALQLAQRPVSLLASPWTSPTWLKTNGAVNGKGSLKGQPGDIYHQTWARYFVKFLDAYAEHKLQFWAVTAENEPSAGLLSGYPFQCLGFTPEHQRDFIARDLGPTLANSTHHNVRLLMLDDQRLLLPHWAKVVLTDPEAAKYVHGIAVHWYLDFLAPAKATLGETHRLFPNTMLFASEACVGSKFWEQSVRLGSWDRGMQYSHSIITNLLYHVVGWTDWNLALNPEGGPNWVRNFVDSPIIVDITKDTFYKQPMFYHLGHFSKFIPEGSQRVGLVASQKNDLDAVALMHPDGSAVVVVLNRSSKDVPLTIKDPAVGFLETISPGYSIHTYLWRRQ
The assay can be described thus: activation of GCase in a live cell PFB assay in HELA cells. The assay is classed as cell-based. The conditions noted are these: activation of GCase, EC50 ranges. As for the experimental part: Exemplary compounds were evaluated for activation of GCase in a live cell PFB assay in HELA cells (essentially as described in Ysselstein et al., “LRRK2 kinase activity regulates lysosomal glucocerebrosidase in neurons derived from Parkinson's disease patients” Nature Communications (2019) 10:5570). […] EC50 ranges: A: <10 μM; B: >10-50 μM; C: >50-100 μM; D: >100 μM.
For `FC(F)(F)c1ccc(N2CCC3(CCN(c4cncc(C(F)(F)F)n4)CC3)C2)cn1` [Cmpd 255], the EC50 is below 10 µM.
Molecule `FC(F)(F)c1ccc(N2CCC3(CCN(c4cncc(N5CCCCC5)n4)CC3)C2)cn1` [Cmpd 256] came in with a half-maximal effective concentration (EC50) below 10 µM.
The molecule `Cc1nn(CC(F)F)c2nc(N3CCC4(CCN(c5ccc(C(F)(F)F)nc5)C4)CC3)cnc12` [Cmpd 257] displayed an EC50 below 10 µM.
`Cc1nn(CC(F)F)c2nc(N3CCC4(CC3)CC(=O)N(c3ccc(C(F)(F)F)nc3)C4)cnc12` [Cmpd 258] registered an EC50 below 10 µM.
As to `FC(F)Cn1ncc2ncc(N3CCC4(CC3)CN(c3cc(C(F)(F)F)ccn3)c3ccccc34)nc21` [Cmpd 259], the EC50 was in the range of 10 to 50 µM.
For the molecule `Cc1nn(CC(F)F)c2nc(N3CCC4(CC3)CCN(c3ccc(C(F)(F)F)nc3)C4=O)cnc12` [Cmpd 260], the EC50 is below 10 µM.
`O=C1N(c2ccc(C(F)(F)F)nc2)c2ccccc2C12CCN(c1cnc3cnn(CC(F)F)c3n1)CC2` [Cmpd 261] came in with an EC50 of 10 to 50 µM.
In turn, `CCc1nccn1-c1cncc(N2CCC3(CC2)CCN(c2cc(C(F)(F)F)ccn2)C3=O)n1` [Cmpd 262] had an EC50 below 10 µM.
As for `CCc1nccn1-c1cncc(N2CCC3(CCN(c4ccc(C(F)(F)F)nc4)C3)CC2)n1` [Cmpd 263], the figure is below 10 µM.
Take `O=C1N(c2cc(C(F)(F)F)ccn2)CCC12CCN(c1nccn3cncc13)CC2` [Cmpd 264]: the EC50 is above 100 µM.
The molecule `CC1CC2(CCN(c3cnc4cnn(CC(F)F)c4n3)CC2)CN1c1ccc(C(F)(F)F)nc1` (stereo not drawn) [Cmpd 265] had an EC50 of 10 to 50 µM.
In the case of `FC(F)Cn1ncc2ncc(N3CCC4(CCN(c5ccc(C(F)(F)F)nc5)C4)C(F)(F)C3)nc21` (stereo not drawn) [Cmpd 266], the EC50 was below 10 µM.
For `Cc1cccc(-c2noc(C)c2C(=O)N2CCC3(CC2)CCN(c2cc(C(F)(F)F)ccn2)C3=O)c1` [Cmpd 267], the EC50 lay within 10 to 50 µM.
For `Cc1cc(F)cc(-n2cc(C(=O)N3CCC4(CC3)CCN(c3cc(C(F)(F)F)ccn3)C4=O)nn2)c1` [Cmpd 268], the EC50 fell in the range of 10 to 50 µM.
In the case of `O=C(c1nc2ccccc2cc1C1CC1)N1CCC2(CC1)CCN(c1cc(C(F)(F)F)ccn1)C2=O` [Cmpd 269], the EC50 is 10 to 50 µM.
Regarding `Cc1cn(-c2ccccc2)nc1C(=O)N1CCC2(CC1)CCN(c1cc(C(F)(F)F)ccn1)C2=O` [Cmpd 270], the EC50 lay in the range of 10 to 50 µM.
Take `Cc1nn(CC(F)F)c2nc(N3CCC4(CC3)CCN(c3cncc(C(F)(F)F)n3)C4=O)cnc12` [Cmpd 271]: the EC50 is 10 to 50 µM.
`O=C1N(c2cncc(C(F)(F)F)n2)CCC12CCN(c1cnc3cnn(CC(F)(F)F)c3n1)CC2` [Cmpd 272] came in with an EC50 of 10 to 50 µM.
With `O=C1N(c2cc(C(F)(F)F)ccn2)CCC12CCN(c1cnc3cnn(C4COC4)c3n1)CC2` [Cmpd 273], the EC50 was in the range of 10 to 50 µM.
To `O=C1CC2(CCN(c3cnc4cnn(CC(F)F)c4n3)CC2)CN1c1cncc(C(F)(F)F)n1` [Cmpd 274] belongs below 10 µM; to `O=C1CC2(CCN(c3cnc4cnn(CC(F)F)c4n3)CC2)CN1c1nccc(C(F)(F)F)n1` [Cmpd 275], below 10 µM.
`O=C1N(c2cncc(C(F)(F)F)n2)CCC12CCN(c1cnc3cnn(C4COC4)c3n1)CC2` [Cmpd 276] gave an EC50 of 10 to 50 µM.
For the molecule `O=C1CC2(CCN(c3cnc4cnn(C5COC5)c4n3)CC2)CN1c1cncc(C(F)(F)F)n1` [Cmpd 277], the EC50 was in the range of 10 to 50 µM.
To `O=C1N(c2nccc(C(F)(F)F)n2)CCC12CCN(c1cnc3cnn(C4COC4)c3n1)CC2` [Cmpd 278] belongs below 10 µM.
Molecule `O=C1CC2(CCN(c3cnc4cnn(C5COC5)c4n3)CC2)CN1c1nccc(C(F)(F)F)n1` [Cmpd 279] showed a concentration giving a half-maximal response (EC50) below 10 µM.
As for `Cc1nn(CC(F)F)c2nc(N3CCC4(CC3)CC(=O)N(c3cncc(C(F)(F)F)n3)C4)cnc12` [Cmpd 280], the figure is 10 to 50 µM; as for `Cc1nn(CC(F)F)c2nc(N3CCC4(CC3)CCN(c3nccc(C(F)(F)F)n3)C4=O)cnc12` [Cmpd 281], below 10 µM; as for `Cc1nn(CC(F)F)c2nc(N3CCC4(CC3)CC(=O)N(c3nccc(C(F)(F)F)n3)C4)cnc12` [Cmpd 282], below 10 µM.
Molecule `Cc1nn(CC(F)F)c2nc(N3CCC4(CC3)CC(=O)N(c3cc(C(F)(F)F)ccn3)C4)cnc12` [Cmpd 283] registered an EC50 below 10 µM.
As to `O=C1CC2(CCN(c3cnc4cnn(C5COC5)c4n3)CC2)CN1c1cc(C(F)(F)F)ccn1` [Cmpd 284], the EC50 lay in the range of 50 to 100 µM.
As for `O=C1N(c2cc(C(F)(F)F)ccn2)CCC12CCN(c1ncc3cnn(CC(F)F)c3n1)CC2` [Cmpd 285], the EC50 was 10 to 50 µM.
Molecule `O=C1CC2(CCN(c3ncc4cnn(CC(F)F)c4n3)CC2)CN1c1cc(C(F)(F)F)ccn1` [Cmpd 286] registered an EC50 below 10 µM.
As for `O=C1N(c2cncc(C(F)(F)F)n2)CCC12CCN(c1ncc3cnn(CC(F)F)c3n1)CC2` [Cmpd 287], the figure is above 100 µM.
To `O=C1CC2(CCN(c3ncc4cnn(CC(F)F)c4n3)CC2)CN1c1cncc(C(F)(F)F)n1` [Cmpd 288] belongs 10 to 50 µM; to `O=C1N(c2nccc(C(F)(F)F)n2)CCC12CCN(c1ncc3cnn(CC(F)F)c3n1)CC2` [Cmpd 289], 10 to 50 µM.
`O=C1CC2(CCN(c3ncc4cnn(CC(F)F)c4n3)CC2)CN1c1nccc(C(F)(F)F)n1` [Cmpd 290] yielded an EC50 below 10 µM.
As for `O=C1N(c2ccc(C(F)(F)F)nc2)C(c2ccccc2)CC12CCN(c1cnc3cnn(CC(F)F)c3n1)CC2` (stereo not drawn) [Cmpd 291], the figure is below 10 µM; as for `O=C1CC2(CCN(c3cnc4cnn(CC(F)F)c4n3)CC2)CCN1c1ccc(C(F)(F)F)cn1` [Cmpd 293], 10 to 50 µM; as for `O=C1CCC2(CCN(c3cnc4cnn(CC(F)F)c4n3)CC2)CN1c1ccc(C(F)(F)F)cn1` [Cmpd 294], 10 to 50 µM.
`FC(F)Cn1ncc2cnc(N3CCC4(CN(c5ccnc(C(F)(F)F)c5)C4)C3)nc21` [Cmpd 295]: the EC50 was 10 to 50 µM.
As to `Cc1nn(CC(F)F)c2nc(N3CCC4(CN(c5ccnc(C(F)(F)F)c5)C4)C3)ncc12` [Cmpd 296], the EC50 is below 10 µM.
`COc1nc(N2CCC3(CN(c4ccnc(C(F)(F)F)c4)C3)C2)nc2c1cnn2CC(F)F` [Cmpd 297] showed an EC50 of 10 to 50 µM.
For the molecule `FC(F)Cn1ncc2ncc(N3CCC4(CN(c5cncc(C(F)(F)F)n5)C4)C3)nc21` [Cmpd 298], the EC50 is above 100 µM.
As for `FC(F)Cn1ncc2ncc(N3CCC4(C3)CN(c3nccc(C(F)(F)F)n3)C4)nc21` [Cmpd 299], the figure is 10 to 50 µM; as for `CC(C)N1C(=O)N(c2cc(C(F)(F)F)ccn2)C(=O)C12CN(c1cnc3cnn(CC(F)F)c3n1)C2` [Cmpd 300], 50 to 100 µM.
In the case of `Cc1nn(CC(F)F)c2nc(N3CCC4(CC3)CCN(c3cc(C(F)(F)F)ccn3)C4=O)ncc12` [Cmpd 301], the EC50 lay in the range of 10 to 50 µM.
As to `Cc1nn(CC(F)F)c2nc(N3CCC4(CC3)CC(=O)N(c3cc(C(F)(F)F)ccn3)C4)ncc12` [Cmpd 302], the EC50 is below 10 µM.
Molecule `COc1nc(N2CCC3(CC2)CCN(c2cc(C(F)(F)F)ccn2)C3=O)nc2c1cnn2CC(F)F` [Cmpd 303] registered an EC50 below 10 µM.
To `COc1nc(N2CCC3(CC2)CC(=O)N(c2cc(C(F)(F)F)ccn2)C3)nc2c1cnn2CC(F)F` [Cmpd 304] belongs below 10 µM.
Consider `O=C1CC2(CCN(c3cnc4cnn(CC(F)F)c4n3)CC2)CN1c1cnc(C(F)(F)F)nc1` [Cmpd 305], for which the EC50 is 10 to 50 µM.
The molecule `O=C1N(c2cnc(C(F)(F)F)nc2)CCC12CCN(c1cnc3cnn(CC(F)F)c3n1)CC2` [Cmpd 306] returned an EC50 of 10 to 50 µM.
`O=C1CC2(CCN(c3cnc4cnn(CC(F)F)c4n3)CC2)CN1Cc1ccc(C(F)(F)F)nc1` [Cmpd 307] returned an EC50 below 10 µM.
`O=C1N(Cc2ccc(C(F)(F)F)nc2)CCC12CCN(c1cnc3cnn(CC(F)F)c3n1)CC2` [Cmpd 308] had an EC50 of 10 to 50 µM.
As to `O=C1CC2(CCN(c3cnc4cnn(CC(F)F)c4n3)CC2)CN1Cc1ccc(C(F)(F)F)cn1` [Cmpd 309], the EC50 was 10 to 50 µM.
`O=C1N(Cc2ccc(C(F)(F)F)cn2)CCC12CCN(c1cnc3cnn(CC(F)F)c3n1)CC2` [Cmpd 310] yielded an EC50 of 10 to 50 µM.
As to `O=C1N(c2cc(C(F)(F)F)ccn2)C2(CC2)CC12CCN(c1cnc3cnn(CC(F)F)c3n1)CC2` [Cmpd 311], the EC50 was 10 to 50 µM.
As for `O=C1N(c2ccc(C(F)(F)F)cn2)C2(CC2)CC12CCN(c1cnc3cnn(CC(F)F)c3n1)CC2` [Cmpd 312], the figure is 50 to 100 µM.
On to `O=C(c1ccc(C(F)(F)F)nc1)N1CCC2(CCN(c3cnc4cnn(CC(F)F)c4n3)CC2)C1` [Cmpd 313], for which the EC50 fell in the range of 10 to 50 µM.
To `O=C(c1ccc(C(F)(F)F)cn1)N1CCC2(CCN(c3cnc4cnn(CC(F)F)c4n3)CC2)C1` [Cmpd 314] belongs above 100 µM; to `O=C1CCC2(CN(c3cnc4cnn(CC(F)F)c4n3)C2)CN1c1ccc(C(F)(F)F)cn1` [Cmpd 315], 10 to 50 µM.
The molecule `FC(F)Cn1ncc2ncc(N3CCC4(CN(c5cnc(C(F)(F)F)nc5)C4)C3)nc21` [Cmpd 316] came in with an EC50 of 10 to 50 µM.
In turn, `FC(F)Cn1ncc2ncc(N3CCC4(CN(c5cnc(C(F)(F)F)cn5)C4)C3)nc21` [Cmpd 317] gave an EC50 of 10 to 50 µM.
With `FC(F)Cn1ncc2ncc(N3CCC4(CN(c5ccnc(C(F)(F)F)n5)C4)C3)nc21` [Cmpd 318], the EC50 fell in the range of 10 to 50 µM.
